Where no end group is shown, it is not given here.
What was measured:
IL-1β and IL-6 = test: Expression of IL-1β and IL-6 in SW480 cell lysates by immunoblotting; type: cell-based, human
Experimental: Expression of IL-1β and IL-6: Two treatment models (post- and pre-LPS treatment) were utilized for assessing the effects of SPA4 peptide on LPS-induced cytokines: IL-1β and IL-6. Post-LPS treatment models (short-term and long-term) are described above. In pre-LPS treatment model, the SW480 cells were pretreated with SPA4 peptide (10 μM) for 2 hours, followed by LPS-challenge (1.0 μg/ml) for another 4 hours. The cell-lysates were prepared either in commercially available cell-culture lysis reagent (Promega, WI) or directly into SDS-PAGE sample buffer containing 50 mM dithiothreitol (Cell Signalling Technology, MA). Ten μg of cell-lysate proteins were separated on 4-20% Novex Tris-glycine gradient SDS-PAGE gel (Invitrogen, CA) or 10% separating-5% stacking acrylamide gel. The expression levels of cytokines were measured by immunoblotting as described above using 1:1000 diluted antibodies against IL-1β and IL-6. Both antibodies were purchased from Santacruz Biotech, CA.

NF-κB = NF-κB luciferase reporter activity in LPS-challenged SW480 cells; type: cell-based, human; conditions: LPS 1.0 μg/ml
Experimental: NF-κB activity: Since binding of LPS to TLR4 activates NF-κB through MYD88-dependent and independent pathways, the effects of SPA4 peptide on basal and LPS-induced NF-κB activity were investigated in SW480 cells transfected with a dominant negative construct of MYD88 (MYD88DN) and NF-κB firefly-luciferase reporter plasmid DNA. Both the short-(1 hour) and long-term (5 hours) effects of the SPA4 peptide on NF-κB activity were studied.
The SW480 cells were transiently-transfected with NF-κB firefly-luciferase reporter plasmid pGL4.32 (luc2P/NF-κB-RE/Hygro, Promega, WI; provided by Dr. Kelly Standifer, Department of Pharmaceutical Sciences, University of Oklahoma Health Sciences Center, Oklahoma City, Okla.) and MYD88-dominant negative plasmid construct (MYD88DN, provided by Dr. Ruslan Medzhitov, Yale University, CT). MYD88 dominant negative plasmid DNA construct lacked the death domain and intermediate domain (Medzhitov et al., 1998). Briefly, NF-κB-Luciferase reporter and MYD88-dominant negative plasmids (1.0 μg each) were mixed with 6 μl of Fugene HD reagent (Roche, Ind.) in 92 μl of serum-free low-glucose DMEM medium (Invitrogen, CA), and incubated for 20 minutes at room temperature. The transfection-mix was then added to the SW480 cells. The SW480 cells transfected with a plasmid DNA construct expressing enhanced green fluorescent protein (pHYG-EGFP; Clontech, CA) were observed under Leica DM4000B fluorescent microscope. The transfection efficiency was calculated as percent of cells expressing EGFP over total number of cells in the brightfield channel. […]
After completion of the incubation period, the medium supernatants were removed and cells were washed with room-temperature DPBS. […] The firefly-luciferase activity (measurement of NF-κB activity) was measured using the luciferase reporter assay system (Promega, Fitchburg, Wis.). Briefly, 50 μl of luciferase assay reagent was added to the 20 μl cell lysate by automated dispenser of Synergy HT multi-mode microplate reader (Biotek, Winooski, Vt.), and luminescence was read within 10 seconds. […]

SW480 cells = test: LPS-stimulated migration of SW480 cells; type: cell-based, human; conditions: LPS 1.0 μg/ml; SPA4 1, 10 and 50 μM; from 24 hours till 72 hours
Experimental: Cell migration: SW480 cells were plated in 30 mm tissue-culture-treated dishes at a density of 1.0×10^6 cells per plate. At 80-90% confluence, a “reference line” was drawn at the bottom of the plate. The cells were scratched off from one side of the reference line using a rubber policeman. A picture was taken at 0 t that helped in marking the “start line”. Cells were then washed with complete medium and incubated with LPS (1.0 μg/ml) and/or SPA4 peptide (1, 10 and 50 μM). Photomicrographs of cells migrated across the “start line” were taken in different fields after each treatment at 24, 48, and 72 hours (±2 hours) following traceable inscriptions made under the plate at three different points, with a Canon digital camera. On 24, 48 and 72 hour images, a second line was drawn along the edge of cells to represent the migration of cells. Cell migration was calculated by measuring the distance cells migrated from the “start line”. Only the continuous migration of cells was considered for measurement. The islets of cells were disregarded. The cell migration was calculated using the following formula: (distance between “start line” at 0 h—“reference line”)-(distance between “72 hours line”—“reference line”).

[1] = Solubility of purified baboon lung SP-A; type: physicochemical

Row | Substance | expression of IL-6 precursors or active form, short-term treatment model (IL-1β and IL-6) | expression of low molecular weight precursors and active IL-1β, post-LPS treatment models (IL-1β and IL-6; 5 hours and 9 hours, dose-dependent) | IL-6 expression, prolonged treatment (IL-1β and IL-6; 6 hours or 9 hours in pre- and post-LPS-treatment models) | expression of IL-1β precursor and active forms, pre-LPS treatment model (IL-1β and IL-6; SPA4 10 μM 2 hours then LPS 1.0 μg/ml 4 hours) | expression of IL-1β precursor form 1 (IL-1β and IL-6; compared with LPS-treated cells) | LPS induced NF-κB activity at 9 hours (NF-κB; SPA4 1, 10 or 50 μM, long-term) | LPS induced-NF-κB activity after 5 hours (NF-κB; SPA4 10 and 50 μM, short-term) | NF-κB activity in cells transfected with dominant negative construct of MYD88 (NF-κB; MYD88DN) | LPS-induced migration of SW480 cells (SW480 cells) | solubility [1] [%]
1 | GDFRYSDGTPVNYTNWYRGE [SPA4, GDFRYSDGT PVNYTNWYRGE] | not significantly affected | significantly decreased | significantly inhibited | significant decrease | increased or unchanged | not significantly inhibited | reduces | did not further reduce | inhibited | 
2 | SP-A: native surfactant protein-A purified from bronchioalveolar lavage fluid of a normal healthy adult baboon (MWLCPLALTLTLMAASGAACEVKDVCVGSPGIPGTPGSHGLPGRDGRDGVKGDPGPP; listed as Papio cynocephalus) |  |  |  |  |  |  |  |  |  | 51

Source: patent US8623832B2, “Peptide compositions that bind TLR-4” (The Board of Regents of the University of Oklahoma, priority 2011, dated 2014)
